The values below are quoted from earlier work in patent US20250009670A1, “Stable Solid Oral Formulation Of Tafamidis Or Pharmaceutically Acceptable Salt Thereof” (Navinta, LLC, priority 2023, published 2025).

On to `O=C(O)c1ccc2nc(-c3cc(Cl)cc(Cl)c3)oc2c1` [Tafamidis, 2-(3,5-dichlorophenyl)-1,3-benzoxazole-6-carboxylic acid], for which the aqueous solubility result is “low aqueous solubility”.
